The results in this text go back to patent publication US7855166B2, “Sulfonylamino(thio)carbonyl compounds” (Bayer Cropscience GmbH, priority 2005, dated 2010).

Experiment [1] concerns weed plants such as Sinapis alba, Chrysanthemum segetum, Avena sativa, Stellaria media, Echinochloa crus-galli, Lolium multiflorum, Setaria viridis, Abutilon …. The experiment is described as follows: Pre-emergence effect on weeds (greenhouse pot test, visual scoring). Format: in vivo. As to conditions: applied pre-emergence at a rate of 0.3 kg or less of active substance per hectare; scored after 3 to 4 weeks in comparison to untreated controls.

Experiment [2] has as its system weed plants such as Sinapis alba, Echinochloa crus-galli, Lolium multiflorum, Chrysanthemum segetum, Setaria viridis, Abutilon theophrasti, Amaranthus …. The experiment is described as follows: Post-emergence effect on weeds (greenhouse pot test, visual scoring). Format: in vivo. As to conditions: applied post-emergence (three-leaf stage) at a rate of 0.3 kg or less of active substance per hectare; scored after about 3 to 4 weeks in comparison to untreated controls.

In the case of `COc1nn(C(=O)NS(=O)(=O)c2ccccc2I)c(=O)n1C` [Compound 1.001], the “herbicidal action against weed plants (visual scoring of plant damage or emergence damage)” value in experiment [1] is given as “very good herbidical action”. Besides, the “herbicidal action against weed plants (effect scored visually)” value in experiment [2] is “very good herbicidal action”.
As for `CCOc1nn(C(=O)NS(=O)(=O)c2ccccc2I)c(=O)n1C` [Compound 1.004], the “herbicidal action against weed plants (visual scoring of plant damage or emergence damage)” value in experiment [1] was “very good herbidical action”. Moreover, the “herbicidal action against weed plants (effect scored visually)” value in experiment [2] is “very good herbicidal action”.
In the case of `CCCOc1nn(C(=O)NS(=O)(=O)c2ccccc2I)c(=O)n1C` [Compound 1.005], in experiment [1], the “herbicidal action against weed plants (visual scoring of plant damage or emergence damage)” value is on record as “very good herbidical action”. Further, the “herbicidal action against weed plants (effect scored visually)” value in experiment [2] was “very good herbicidal action”.
For `COc1nn(C(=O)NS(=O)(=O)c2ccccc2I)c(=O)n1C1CC1` [Compound 1.008] the same measures were “very good herbidical action” and “very good herbicidal action”.
For `CCOc1nn(C(=O)NS(=O)(=O)c2ccccc2I)c(=O)n1C1CC1` [Compound 1.011], in experiment [1], the “herbicidal action against weed plants (visual scoring of plant damage or emergence damage)” value is “very good herbidical action”. The “herbicidal action against weed plants (effect scored visually)” value in experiment [2] is reported as “very good herbicidal action”.
As to `CCCOc1nn(C(=O)NS(=O)(=O)c2ccccc2I)c(=O)n1C1CC1` [Compound 1.014], in experiment [1], the “herbicidal action against weed plants (visual scoring of plant damage or emergence damage)” value is given as “very good herbidical action”. In addition, the “herbicidal action against weed plants (effect scored visually)” value in experiment [2] is listed as “very good herbicidal action”.
The like results for `COc1nn(C(=O)NS(=O)(=O)c2c(F)cccc2I)c(=O)n1C` [Compound 1.021] were, in that order, “very good herbidical action” and “very good herbicidal action”.
With `CCOc1nn(C(=O)NS(=O)(=O)c2c(F)cccc2I)c(=O)n1C` [Compound 1.022], the “herbicidal action against weed plants (visual scoring of plant damage or emergence damage)” value in experiment [1] is on record as “very good herbidical action”. The “herbicidal action against weed plants (effect scored visually)” value in experiment [2] is “very good herbicidal action”.
Turning to `CCCOc1nn(C(=O)NS(=O)(=O)c2c(F)cccc2I)c(=O)n1C` [Compound 1.023], in experiment [1], the “herbicidal action against weed plants (visual scoring of plant damage or emergence damage)” value is given as “very good herbidical action”. Moreover, the “herbicidal action against weed plants (effect scored visually)” value in experiment [2] was “very good herbicidal action”.
The like results for `CC(C)Oc1nn(C(=O)NS(=O)(=O)c2c(F)cccc2I)c(=O)n1C` [Compound 1.024] were, in that order, “very good herbidical action” and “very good herbicidal action”.
`CCOc1nn(C(=O)NS(=O)(=O)c2c(F)cccc2I)c(=O)n1C1CC1` [Compound 1.027]: the “herbicidal action against weed plants (visual scoring of plant damage or emergence damage)” value in experiment [1] is “very good herbidical action”. Further, the “herbicidal action against weed plants (effect scored visually)” value in experiment [2] is recorded as “very good herbicidal action”.
With `CCCOc1nn(C(=O)NS(=O)(=O)c2c(F)cccc2I)c(=O)n1C1CC1` [Compound 1.028], the “herbicidal action against weed plants (visual scoring of plant damage or emergence damage)” value in experiment [1] is “very good herbidical action”. For the same molecule, in experiment [2], the “herbicidal action against weed plants (effect scored visually)” value was “very good herbicidal action”.
The like results for `COc1nn(C(=O)NS(=O)(=O)c2c(C)cccc2I)c(=O)n1C` [Compound 1.037] were, in that order, “very good herbidical action” and “very good herbicidal action”.
Take `CCOc1nn(C(=O)NS(=O)(=O)c2c(C)cccc2I)c(=O)n1C` [Compound 1.038]: in experiment [1], the “herbicidal action against weed plants (visual scoring of plant damage or emergence damage)” value was “very good herbidical action”. Moreover, the “herbicidal action against weed plants (effect scored visually)” value in experiment [2] is listed as “very good herbicidal action”.
The like results for `CCCOc1nn(C(=O)NS(=O)(=O)c2c(C)cccc2I)c(=O)n1C` [Compound 1.039] were, in that order, “very good herbidical action” and “very good herbicidal action”.
For `Cc1cccc(I)c1S(=O)(=O)NC(=O)n1nc(OC(C)C)n(C)c1=O` [Compound 1.040] the same measures were “very good herbidical action” and “very good herbicidal action”.
On to `COc1nn(C(=O)NS(=O)(=O)c2c(C)cccc2I)c(=O)n1C1CC1` [Compound 1.042], for which, in experiment [1], the “herbicidal action against weed plants (visual scoring of plant damage or emergence damage)” value is listed as “very good herbidical action”. The “herbicidal action against weed plants (effect scored visually)” value in experiment [2] is on record as “very good herbicidal action”.
For `CCCOc1nn(C(=O)NS(=O)(=O)c2c(C)cccc2I)c(=O)n1C1CC1` [Compound 1.044] the same measures were “very good herbidical action” and “very good herbicidal action”.
With `COc1nn(C(=O)NS(=O)(=O)c2c(I)cccc2C(F)(F)F)c(=O)n1C` [Compound 1.133], the “herbicidal action against weed plants (visual scoring of plant damage or emergence damage)” value in experiment [1] is “very good herbidical action”. Moreover, in experiment [2], the “herbicidal action against weed plants (effect scored visually)” value is “very good herbicidal action”.
Consider `CCOc1nn(C(=O)NS(=O)(=O)c2c(I)cccc2C(F)(F)F)c(=O)n1C` [Compound 1.136], for which the “herbicidal action against weed plants (visual scoring of plant damage or emergence damage)” value in experiment [1] is given as “very good herbidical action”. For the same molecule, in experiment [2], the “herbicidal action against weed plants (effect scored visually)” value is reported as “very good herbicidal action”.
As for `CCCOc1nn(C(=O)NS(=O)(=O)c2c(I)cccc2C(F)(F)F)c(=O)n1C` [Compound 1.137], in experiment [1], the “herbicidal action against weed plants (visual scoring of plant damage or emergence damage)” value was “very good herbidical action”. Further, the “herbicidal action against weed plants (effect scored visually)” value in experiment [2] is “very good herbicidal action”.
For `CC(C)Oc1nn(C(=O)NS(=O)(=O)c2c(I)cccc2C(F)(F)F)c(=O)n1C` [Compound 1.138] the same measures were “very good herbidical action” and “very good herbicidal action”.
The like results for `COc1nn(C(=O)NS(=O)(=O)c2c(I)cccc2C(F)(F)F)c(=O)n1C1CC1` [Compound 1.140] were, in that order, “very good herbidical action” and “very good herbicidal action”.
Take `CCOc1nn(C(=O)NS(=O)(=O)c2c(I)cccc2C(F)(F)F)c(=O)n1C1CC1` [Compound 1.143]: the “herbicidal action against weed plants (visual scoring of plant damage or emergence damage)” value in experiment [1] is given as “very good herbidical action”. In addition, the “herbicidal action against weed plants (effect scored visually)” value in experiment [2] is given as “very good herbicidal action”.
In the case of `CCOc1nn(C(=O)NS(=O)(=O)c2c(I)cccc2OC)c(=O)n1C1CC1` [Compound 1.191, 4-Cyclopropyl-3-ethoxy-N-[(2-iodo-6-methoxyphenyl)sulfonyl]-5-oxo-4,5-dihydro-1H-1,2,4-triazole-1-carboxamide], the “herbicidal action against weed plants (visual scoring of plant damage or emergence damage)” value in experiment [1] is listed as “very good herbidical action”. In experiment [2], the “herbicidal action against weed plants (effect scored visually)” value is “very good herbicidal action”.
For `CCOc1nn(C(=O)NS(=O)(=O)c2c(I)cccc2OC)c(=O)n1C` [Compound 1.194], the “herbicidal action against weed plants (visual scoring of plant damage or emergence damage)” value in experiment [1] is “very good herbidical action”. For the same molecule, the “herbicidal action against weed plants (effect scored visually)” value in experiment [2] is given as “very good herbicidal action”.
The like results for `CCCOc1nn(C(=O)NS(=O)(=O)c2c(I)cccc2OC)c(=O)n1C` [Compound 1.195] were, in that order, “very good herbidical action” and “very good herbicidal action”.
On to `COc1cccc(I)c1S(=O)(=O)NC(=O)n1nc(OC(C)C)n(C)c1=O` [Compound 1.196], for which the “herbicidal action against weed plants (visual scoring of plant damage or emergence damage)” value in experiment [1] was “very good herbidical action”. The “herbicidal action against weed plants (effect scored visually)” value in experiment [2] was “very good herbicidal action”.
For `CCSc1nn(C(=O)NS(=O)(=O)c2c(I)cccc2OC)c(=O)n1C` [Compound 1.197] the same measures were “very good herbidical action” and “very good herbicidal action”.
Consider `COc1cccc(I)c1S(=O)(=O)NC(=O)n1nc(OC)n(C2CC2)c1=O` [Compound 1.198], for which the “herbicidal action against weed plants (visual scoring of plant damage or emergence damage)” value in experiment [1] was “very good herbidical action”. Also, in experiment [2], the “herbicidal action against weed plants (effect scored visually)” value is “very good herbicidal action”.
With `CCCOc1nn(C(=O)NS(=O)(=O)c2c(I)cccc2OC)c(=O)n1C1CC1` [Compound 1.204], the “herbicidal action against weed plants (visual scoring of plant damage or emergence damage)” value in experiment [1] was “very good herbidical action”. Also, the “herbicidal action against weed plants (effect scored visually)” value in experiment [2] was “very good herbicidal action”.
For `CCOc1cccc(I)c1S(=O)(=O)NC(=O)n1nc(OC)n(C)c1=O` [Compound 1.211] the same measures were “very good herbidical action” and “very good herbicidal action”.
As for `CCOc1cccc(I)c1S(=O)(=O)NC(=O)n1nc(OCC)n(C)c1=O` [Compound 1.214], in experiment [1], the “herbicidal action against weed plants (visual scoring of plant damage or emergence damage)” value is recorded as “very good herbidical action”. For the same molecule, the “herbicidal action against weed plants (effect scored visually)” value in experiment [2] is “very good herbicidal action”.
As to `CCCOc1nn(C(=O)NS(=O)(=O)c2c(I)cccc2OCC)c(=O)n1C` [Compound 1.215], the “herbicidal action against weed plants (visual scoring of plant damage or emergence damage)” value in experiment [1] is given as “very good herbidical action”. For the same molecule, in experiment [2], the “herbicidal action against weed plants (effect scored visually)” value is on record as “very good herbicidal action”.
The like results for `CCOc1cccc(I)c1S(=O)(=O)NC(=O)n1nc(OC)n(C2CC2)c1=O` [Compound 1.218] were, in that order, “very good herbidical action” and “very good herbicidal action”.
